Measurements reported in US12390437B2, “Itaconic acid derivatives and uses thereof intreating an inflammatory disease or a disease associated with an undesirable immune response” (Sitryx Therapeutics Limited, priority 2019, dated 2025).

Tested on: hepatocytes
Experiment: Hepatocyte stability assay (human)
Format: in vitro ADME
Settings: 10 μM compound, 0.5×10^6 cells/mL, 60 minutes
Source text: (§1) Defrosted cryo-preserved hepatocytes (viability >70%) are used to determine the metabolic stability of a compound via calculation of intrinsic clearance (Clint; a measure of the removal of a compound from the liver in the absence of blood flow and cell binding). Clearance data are particularly important for in vitro work as they can be used in combination with in vivo data to predict the half-life and oral bioavailability of a drug.
(§2) The metabolic stability in hepatocytes assay involves a time-dependent reaction using both positive and negative controls. The cells must be pre-incubated at 37° C. then spiked with test compound (and positive control); samples taken at pre-determined time intervals are analysed to monitor the change in concentration of the initial drug compound over 60 minutes. A buffer incubation reaction (with no hepatocytes present) acts as a negative control and two cocktail solutions, containing compounds with known high and low clearance values (verapamil/7-hydroxycoumarin and propranolol/diltiazem), act as positive controls. • 1. The assay is run with a cell concentration of 0.5×10^6 cells/mL in Leibovitz buffer. • 2. All compounds and controls are run in duplicate. • 3. Compound concentration is 10 μM. • 4. All compounds and controls are incubated with both cells and buffer to show turnover is due to hepatic metabolism. • 5. All wells on the incubation plate will have 326.7 μL of either cells or buffer added. • 6. Prior to assay, cell and buffer-only incubation plates are preincubated for 10 mins at 37° C. • 7. The assay is initiated by adding compounds, 3.3 μL of 1 mM in 10% DMSO-90% Buffer; final DMSO concentration is 0.1%. • 8. Samples are taken at regular timepoints (0, 5, 10, 20, 40, 60 min) until 60 mins. • 9. Sample volume is 40 μL and it is added to 160 μL of crash solvent (acetonitrile with internal standard) and stored on ice. • 10. At the end of the assay, the crash plates are centrifuged at 3500 rpm for 20 mins at 4° C. • 11. 80 μL of clear supernatant is removed and mixed with 80 μL of deionised water before being analysed by LC-MS/MS.
(§3) Raw LC-MS/MS data are exported to, and analysed in, Microsoft Excel for determination of intrinsic clearance. The percentage remaining of a compound is monitored using the peak area of the initial concentration as 100%. Intrinsic clearance and half-life values are calculated using a graph of the natural log of percentage remaining versus the time of reaction in minutes. Half-life (min) and intrinsic clearance (Clint in μL min^−1 10^−6 cells) values are calculated using the gradient of the graph (the elimination rate constant, k) and Equations 1 and 2.

Row | CIint (μL min^−1 10^−6 cells) | SMILES
1 | 65 | C=C(CC(=O)O[C@H](C)CCCCCC)C(=O)OCC(=O)O [Example 112, (R)-2-((2-methylene-4-(octan-2-yloxy)-4-oxobutanoyl)oxy)acetic acid]

Tested on: not listed separately
Experiment: Hepatocyte stability assay (human)
Format: in vitro ADME
Settings: cryopreserved hepatocytes, 10 μM compound, 0.5×10^6 cells/mL, 60 minutes, read-out: T½
Source text: as §1, §2, §3

Row | half-life at 10 μM [min] | SMILES
2 | 25 | C=C(CC(=O)O[C@H](C)CCCCCC)C(=O)OCC(=O)O [Example 112, (R)-2-((2-methylene-4-(octan-2-yloxy)-4-oxobutanoyl)oxy)acetic acid]

Tested on: not listed separately
Experiment: Mouse pharmacokinetic study, oral administration
Format: in vivo
Settings: male, C57BL/6, mouse, plasma, po, 100 mg/kg, plasma, male C57BL/6 mice, oral gavage 100 mg/kg, 0.083 h; read-out: Parent compound concentrations following oral administration, Time 0.083 h
In short: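 Male C57BL/6 mice (6-8 weeks, fed ad libitum) received 10 mg/kg IV by tail vein in 10% DMSO/HP-β-CD vehicle, or 100 mg/kg by oral gavage in DMSO/HPMC/Tween 80. Facial-vein blood was taken at 9 time points (N=3 each) into K2EDTA; plasma concentrations were measured by LC-MS/MS.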

Row | concentration at 0.083 h [ng/mL] | SMILES
3 | 79800 | C=C(CC(=O)O[C@H](C)CCCCCC)C(=O)OCC(=O)O [Example 112, (R)-2-((2-methylene-4-(octan-2-yloxy)-4-oxobutanoyl)oxy)acetic acid]

Same assay, conditions: male, C57BL/6, mouse, plasma, po, 100 mg/kg, plasma, male C57BL/6 mice, oral gavage 100 mg/kg, 0.25 h; read-out: Parent compound concentrations following oral administration, Time 0.25 h

Row | concentration at 0.25 h [ng/mL] | SMILES
4 | 64600 | C=C(CC(=O)O[C@H](C)CCCCCC)C(=O)OCC(=O)O [Example 112, (R)-2-((2-methylene-4-(octan-2-yloxy)-4-oxobutanoyl)oxy)acetic acid]

Same assay, conditions: male, C57BL/6, mouse, plasma, po, 100 mg/kg, plasma, male C57BL/6 mice, oral gavage 100 mg/kg, 0.5 h; read-out: Parent compound concentrations following oral administration, Time 0.5 h

Row | concentration at 0.5 h [ng/mL] | SMILES
5 | 72300 | C=C(CC(=O)O[C@H](C)CCCCCC)C(=O)OCC(=O)O [Example 112, (R)-2-((2-methylene-4-(octan-2-yloxy)-4-oxobutanoyl)oxy)acetic acid]

Same assay, conditions: male, C57BL/6, mouse, plasma, po, 100 mg/kg, plasma, male C57BL/6 mice, oral gavage 100 mg/kg, 1 h; read-out: Parent compound concentrations following oral administration, Time 1 h

Row | concentration at 1 h [ng/mL] | SMILES
6 | 49500 | C=C(CC(=O)O[C@H](C)CCCCCC)C(=O)OCC(=O)O [Example 112, (R)-2-((2-methylene-4-(octan-2-yloxy)-4-oxobutanoyl)oxy)acetic acid]

Same assay, conditions: male, C57BL/6, mouse, plasma, po, 100 mg/kg, plasma, male C57BL/6 mice, oral gavage 100 mg/kg, 2 h; read-out: Parent compound concentrations following oral administration, Time 2 h

Row | concentration at 2 h [ng/mL] | SMILES
7 | 31400 | C=C(CC(=O)O[C@H](C)CCCCCC)C(=O)OCC(=O)O [Example 112, (R)-2-((2-methylene-4-(octan-2-yloxy)-4-oxobutanoyl)oxy)acetic acid]

Same assay, conditions: male, C57BL/6, mouse, plasma, po, 100 mg/kg, plasma, male C57BL/6 mice, oral gavage 100 mg/kg, 4 h; read-out: Parent compound concentrations following oral administration, Time 4 h

Row | concentration at 4 h [ng/mL] | SMILES
8 | 21300 | C=C(CC(=O)O[C@H](C)CCCCCC)C(=O)OCC(=O)O [Example 112, (R)-2-((2-methylene-4-(octan-2-yloxy)-4-oxobutanoyl)oxy)acetic acid]

Same assay, conditions: male, C57BL/6, mouse, plasma, po, 100 mg/kg, plasma, male C57BL/6 mice, oral gavage 100 mg/kg, 6 h; read-out: Parent compound concentrations following oral administration, Time 6 h

Row | concentration at 6 h [ng/mL] | SMILES
9 | 6780 | C=C(CC(=O)O[C@H](C)CCCCCC)C(=O)OCC(=O)O [Example 112, (R)-2-((2-methylene-4-(octan-2-yloxy)-4-oxobutanoyl)oxy)acetic acid]

Same assay, conditions: male, C57BL/6, mouse, plasma, po, 100 mg/kg, plasma, male C57BL/6 mice, oral gavage 100 mg/kg, 8 h; read-out: Parent compound concentrations following oral administration, Time 8 h

Row | concentration at 8 h [ng/mL] | SMILES
10 | 12200 | C=C(CC(=O)O[C@H](C)CCCCCC)C(=O)OCC(=O)O [Example 112, (R)-2-((2-methylene-4-(octan-2-yloxy)-4-oxobutanoyl)oxy)acetic acid]

Same assay, conditions: male, C57BL/6, mouse, plasma, po, 100 mg/kg, plasma, male C57BL/6 mice, oral gavage 100 mg/kg, 24 h; read-out: Parent compound concentrations following oral administration, Time 24 h

Row | concentration at 24 h [ng/mL] | SMILES
11 | 25 | C=C(CC(=O)O[C@H](C)CCCCCC)C(=O)OCC(=O)O [Example 112, (R)-2-((2-methylene-4-(octan-2-yloxy)-4-oxobutanoyl)oxy)acetic acid]

Same assay, conditions: male, C57BL/6, po; mouse plasma, Example 112 dosed orally at 100 mg/kg (Intermediate 8 = metabolite), time 0.083 h; read-out: Example 112 and Intermediate 8 concentrations following oral administration

Row | concentration at 0.083 h [ng/mL] | SMILES
12 | 109000 | C=C(CC(=O)O[C@H](C)CCCCCC)C(=O)OCC(=O)O [Example 112, (R)-2-((2-methylene-4-(octan-2-yloxy)-4-oxobutanoyl)oxy)acetic acid]

Same assay, conditions: male, C57BL/6, po; mouse plasma, Example 112 dosed orally at 100 mg/kg (Intermediate 8 = metabolite), time 0.25 h; read-out: Example 112 and Intermediate 8 concentrations following oral administration

Row | concentration at 0.25 h [ng/mL] | SMILES
13 | 116000 | C=C(CC(=O)O[C@H](C)CCCCCC)C(=O)OCC(=O)O [Example 112, (R)-2-((2-methylene-4-(octan-2-yloxy)-4-oxobutanoyl)oxy)acetic acid]

Same assay, conditions: male, C57BL/6, po; mouse plasma, Example 112 dosed orally at 100 mg/kg (Intermediate 8 = metabolite), time 0.5 h; read-out: Example 112 and Intermediate 8 concentrations following oral administration

Row | concentration at 0.5 h [ng/mL] | SMILES
14 | 74200 | C=C(CC(=O)O[C@H](C)CCCCCC)C(=O)OCC(=O)O [Example 112, (R)-2-((2-methylene-4-(octan-2-yloxy)-4-oxobutanoyl)oxy)acetic acid]

Same assay, conditions: male, C57BL/6, po; mouse plasma, Example 112 dosed orally at 100 mg/kg (Intermediate 8 = metabolite), time 1 h; read-out: Example 112 and Intermediate 8 concentrations following oral administration

Row | concentration at 1 h [ng/mL] | SMILES
15 | 27900 | C=C(CC(=O)O[C@H](C)CCCCCC)C(=O)OCC(=O)O [Example 112, (R)-2-((2-methylene-4-(octan-2-yloxy)-4-oxobutanoyl)oxy)acetic acid]
